# What was measured:
# [1] = test system: APPswe/lnd-expressing neurons; assay: Paired whole-cell recording of AMPAR-mediated EPSCs in APPswe/lnd-expressing CA1 neurons of organotypic hippocampal slices; type: cell-based, rat; conditions: 15 nM bPV(HOpic) or 50 nM VO-OHpic during expression
# Method: The effect of recombinant protein expression on synaptic transmission was evaluated by simultaneous double whole-cell recordings from pairs of nearby infected and uninfected CA1 neurons, under voltage clamp, while stimulating presynaptic Schaffer collateral fibers (under this configuration, recombinant proteins are expressed exclusively in the postsynaptic neuron).
# The different versions of APP (APPwt, APPswe/lnd APPMV) and EGFP were co-expressed using an internal ribosomal entry site (IRES) construct. The EGFP-tagged versions of PTEN have been described (Jurado, et al. (2010) EMBO J. 29:2827-2840). All constructs were prepared in pSinRep5 for expression using Sindbis virus. Recombinant proteins were expressed in hippocampal CA1 pyramidal neurons from organotypic slice cultures. Organotypic hippocampal slices were prepared from postnatal day 5-7 rats and cultured during 6-8 days.
# The external solution (aCSF) contained 119 mM NaCl, 2.5 mM KCl, 1 mM NaH2PO4, 11 mM glucose, 26 mM NaHCO3, 4 mM MgCl2, 4 mM CaCl2, 100 μM picrotoxin and 2 μM 2-chloroadenosine, pH 7.4, and was gassed with 95% O2 and 5% CO2. […] Bipolar stimulating electrodes were placed over Schaffer collateral fibers between 250 and 300 μm from the CA1 recorded cells, and synaptic responses were evoked with single voltage pulses (200 μs, up to 30 V). […]
# APP/PS1 mice = assay: Hippocampal APP, C-terminal fragments, Aβ monomers and SDS-resistant Aβ assemblies after in vivo treatment (western blot, ELISA); design: species or system mouse; conditions: after VO-OHpic treatment, end of last behavioural test
# Method: (§1) Hippocampal slices overexpressing Aβ were maintained for 3 days after virus injection with or without the PTEN inhibitor VO-OHpic, before culture medium was collected for measurements. Aβ40 and Aβ42 level were determined in solubilized hippocampal fractions, cultured hippocampal slices or conditioned media by ELISA according to the manufacturer's instructions (WAKO/Invitrogen) that specifically detect the C-terminus of Aβ40 and Aβ42, respectively.
# Hippocampi from APP/PS1 mice or their wild-type littermates and organotypic hippocampal slices infected with APPswe/lnd-EGFP/APPwt-EGFP/APPMV-EGFP were solubilized, and extracts were prepared for western blot analysis. Mouse brains or brain sections were homogenized on ice in RIPA buffer (1% TRITON X-100, 1% sodium deoxycholate, 0.1% SDS, 150 mM NaCl, 50 mM Tris-HCl, pH 7.2), using an ULTRATURRAX T25 (Janke & Kunkel). Samples were centrifuged at 15,000×g, and supernatants were used for protein determination. APPsα was detected in conditioned media of the respective slices using antibody 6E10 that selectively detects human APPsα. Levels of APP, CTFα and CTFβ were detected in lysates of the infected slices using APPCt antibody.
# After the end of the last test, the levels of APP and its C-terminal fragments (western blot), Aβ monomers (ELISA), and SDS-resistant. Aβ assemblies (SDS-PAE) were measured from the hippocampus of each mouse. […]
# [2] = test system: APPswe/lnd-EGFP infected neurons; assay: APP expression, APP fragments and Aβ production/secretion in APPswe/lnd-infected slice cultures (ELISA, western blot); type: cell-based, rat; conditions: slice cultures with or without PTEN inhibitor
# Method: as §1
# Hippocampi from APP/PS1 mice or their wild-type littermates and organotypic hippocampal slices infected with APPswe/lnd-EGFP/APPwt-EGFP/APPMV-EGFP were solubilized, and extracts were prepared for western blot analysis. […] APPsα was detected in conditioned media of the respective slices using antibody 6E10 that selectively detects human APPsα. Levels of APP, CTFα and CTFβ were detected in lysates of the infected slices using APPCt antibody. […]
# However, this form of depression may in principle be due to Aβ exposure, to intracellular fragments derived from APP processing, or a combination thereof. To test the role of PTEN specifically in the effects of neuron-secreted Aβ, synaptic dysfunctions were monitored in untransfected cells neighboring APPswe/lnd-expressing neurons. […]
structure (smiles),measurement,setting,value
O=C(O)c1ncccc1O.O=C(O)c1ncccc1O.[O]=[V][O-] [VO-OHpic],AMPAR-mediated EPSCs in APPswe/lnd-expressing neurons relative to uninfected cells,[1],no longer depressed
same,"levels of APP and its C-terminal fragments, Aβ monomers and SDS-resistant Aβ assemblies in hippocampus",APP/PS1 mice,No changes were detected
same,"recombinant APP expression, formation of C-terminal APP fragments, Aβ production/secretion",[2],independent of VO-OHpic treatment
